Where two headings read alike, the source gives them in different places.

For assay [1], the system named is Methylmalonic Acidemia (MMA) primary fibroblasts GM01673. The experiment in a line: Mitochondrial respiration, XFe96 Extracellular Flux Analyzer (OCR/ECAR), MMA fibroblasts GM01673. In kind it is cell-based. The note with it: Homo sapiens, Fibroblast. Put shortly: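 Primary fibroblasts (20000 cells/well) were held 24 h in supplemented DMEM before Seahorse OCR/ECAR profiling. Compounds at 10 to 50 μM or 0.1% DMSO were injected after baseline, then oligomycin 1 μg/ml, FCCP, and rotenone/antimycin A 0.5 μM. Values were normalized to Hoechst nuclear counts, baselined to pre-compound, and expressed relative to vehicle.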

The next assay relates to HepG2 cells. Nature of the assay: MitoBiogenesis In-Cell ELISA (COX-I, SDH-A). In kind it is cell-based. As to conditions: Homo sapiens, 168 h, 7 days, read-out: % increase in Mitochondrial Biogenesis. Put shortly: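 HepG2 cells were plated, adhered overnight at 37 °C/5% CO2, then exposed to test compounds (50–10 μM) in DMEM with 10% FBS for 7 days without media change; vehicle was 0.2% DMSO. COX-I and SDH-A were measured by in-cell ELISA and reported as signal relative to vehicle, n=2.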
Background: ELISA stands for enzyme-linked immunosorbent assay.

Assay [2] deals with Dermal fibroblasts (HDF3CGF system). The experiment in a line: BioMAP HDF3CGF system (IL-1β, TNFα, IFNγ, EGF, bFGF, PDGF-BB). The assay is classed as cell-based, human. The note with it: for activation at 10 µM: 72 h, read-out: % increase in 72 Hour Proliferation.
Where [3] appears, read: assay condition D (1 mM glucose, 10% FBS), read-out: Increase in Maximal Respiratory Capacity AUC.
The mark [4] stands for this setting: 10 uM, procedure of Example 833.
Where [5] appears, read: Homo sapiens, Fibroblast, 24 h, 10 uM, read-out: % decrease in Collagen III.
[6] abbreviates: Homo sapiens, Fibroblast, 10 uM.
Setting [7] is: assay condition A (10 mM glucose, 2 mM L-glutamine, 1 mM pyruvate, 10% FBS), read-out: Increase in Maximal Respiratory Capacity AUC.

For the molecule `CC(C)(CO)[C@@H](O)C(=O)NCCC(=O)NCCSC(=O)CCCN` [Compound 370, (2R)—N-[2-([2-[(4-aminobutanoyl)sulfanyl]ethyl]carbamoyl)ethyl]-2,4-dihydroxy-3,3-dimethylbutanamide], the activation at 10 µM in assay [1] (setting [3]) is not below 10%. `CCC(C)C(=O)CC(=O)SCCNC(=O)CCNC(=O)[C@H](O)C(C)(C)CO` (stereo partly drawn) [Compound 1240, S-(2-(3-((R)-2,4-dihydroxy-3,3-dimethylbutanamido)propanamido)ethyl) 4-methyl-3-oxohexanethioate]: the activation at 50 µM with HepG2 cells is more than 20%.

In the case of `CC(C)(CO)[C@@H](O)C(=O)NCCC(=O)NCCSC(CC(=O)OCC[N+](C)(C)C)C(=O)O` (stereo partly drawn) [Compound 51, [2-([3-carboxy-3-[(2-[3-[(2R)-2,4-dihydroxy-3,3-dimethylbutanamido]propanamido]ethyl)sulfanyl]propanoyl]oxy)ethyl]trimethylazanium], the activation at 10 µM in assay [1] (setting [3]) was not below 10%.

Turning to `COC(=O)CCC(=O)SCCNC(=O)CCNC(=O)[C@H](O)C(C)(C)CO` [Compound 4, Methyl (R)-4-((2-(3-(2,4-dihydroxy-3,3-dimethylbutanamido)propanamido)ethyl)thio)-4-oxobutanoate], the activation at 50 µM in the assay on HepG2 cells was more than 5%.

As for `COC(=O)CCC(=O)SCCNC(=O)CCNC(=O)[C@H](OC(=O)CNC(C)=O)C(C)(C)CO` [Compound 1298, methyl 4-[(2-[3-[(2R)-2-[(2-acetamidoacetyl)oxy]-4-hydroxy-3,3-dimethylbutanamido]propanamido]ethyl)sulfanyl]-4-oxobutanoate], in assay [2] (1 uM), the “% decrease in TIMP-1” value is not below 10% and the “% decrease in TIMP-2” value was not below 10%.

With `CC(O)C(C(=O)SCCNC(=O)CCNC(=O)[C@H](O)C(C)(C)CO)C(C)O` (stereo partly drawn) [Compound 1285, (2R)-2,4-dihydroxy-N-[2-[(2-[[3-hydroxy-2-(1-hydroxyethyl)butanoyl]sulfanyl]ethyl)carbamoyl]ethyl]-3,3-dimethylbutanamide], the activation at 50 µM with HepG2 cells was more than 10%.

In the case of `CC(C)(CO)[C@@H](OC(=O)CCC(=O)O)C(=O)NCCC(=O)NCCS` [Compound 1311, (R)-4-((4-hydroxy-1-((3-((2-mercaptoethyl)amino)-3-oxopropyl)amino)-3,3-dimethyl-1-oxobutan-2-yl)oxy)-4-oxobutanoic acid], the activation at 10 µM in the assay with HepG2 cells stood at 5%. Turning to `COC(=O)CC(C(C)=O)C(=O)SCCNC(=O)CCNC(=O)[C@H](O)C(C)(C)CO` (stereo partly shown) [Compound 410], in assay [1] (assay condition A (10 mM glucose, 2 mM L-glutamine, 1 mM pyruvate, 10% FBS), 50 μM, read-out: Increase in Spare Capacity AUC), the activation at 50 µM is not below 10%. As to `CC(C)(CO)[C@@H](O)C(=O)NCCC(=O)NCCSC(=O)[C@@H](N)Cc1ccc(O)c(O)c1` [Compound 371, (2R)—N-[2-[(2-[[(2S)-2-amino-3-(3,4-dihydroxyphenyl)propanoyl]sulfanyl]ethyl)carbamoyl]ethyl]-2,4-dihydroxy-3,3-dimethylbutanamide], in assay [1] (setting [3]), the activation at 10 µM is not below 10%. For the same molecule, the “% increase in PAI-I” value in assay [2] (10 uM) was not below 10%. In addition, in assay [2] (setting [4]), the “% decrease in Collagen I” value is not below 10%. For the same molecule, the inhibition at 10 µM in assay [2] (setting [5]) is not below 10%.

On to `C/C=C/C(=O)SCCNC(=O)CCNC(=O)[C@H](O)C(C)(C)COP(=O)(O)O` [Compound 82, (R)—S-(2-(3-(2-hydroxy-3,3-dimethyl-4-(phosphonooxy)butanamido)propanamido)ethyl) (E)-but-2-enethioate], for which the activation at 50 µM in the assay on HepG2 cells was more than 10%.

Regarding `CC(C)(COC(=O)OCC[N+](C)(C)C)[C@@H](O)C(=O)NCCC(=O)NCCSC(=O)CCC(=O)O` [Compound 116, [2-([[(3R)-3-[[2-([2-[(3-carboxypropanoyl)sulfanyl]ethyl]carbamoyl)ethyl]carbamoyl]-3-hydroxy-2,2-dimethylpropoxy]carbonyl]oxy)ethyl]trimethylazanium], in assay [2] (setting [4]), the “% decrease in Collagen I” value is reported as not below 10%. For the molecule `CCCCCCC(=O)SCCNC(=O)CCNC(=O)[C@H](O)C(C)(C)CO` [Compound 372, (2R)—N-(2-[[2-(heptanoylsulfanyl)ethyl]carbamoyl]ethyl)-2,4-dihydroxy-3,3-dimethylbutanamide], the activation at 10 µM in assay [1] (assay condition A (10 mM glucose, 2 mM L-glutamine, 1 mM pyruvate, 10% FBS), read-out: Increase in Spare Capacity AUC) was not below 10%. For the same molecule, the “% increase in PAI-I” value in assay [2] (10 uM) is recorded as not below 10%. Besides, the inhibition at 10 µM in assay [2] (setting [5]) was not below 10%. As for `COC(=O)CCC(=O)SCCNC(=O)CCNC(=O)[C@H](O)C(C)(C)COC(C)=O` [Compound 138], in assay [2] (1 uM, procedure of Example 833), the “% decrease in Collagen I” value was not below 10%.

For the molecule `CC(=O)SCCNC(=O)CCNC(=O)[C@H](O)C(C)(C)COC(=O)[C@@H](N)Cc1ccc(O)c(O)c1` [Compound 498, (3R)-3-[(2-[[2-(acetylsulfanyl)ethyl]carbamoyl]ethyl)carbamoyl]-3-hydroxy-2,2-dimethylpropyl (2S)-2-amino-3-(3,4-dihydroxyphenyl)propanoate], in assay [2] (1 uM), the “% decrease in TIMP-2” value is not below 10%. Besides, in assay [2] (10 uM), the “% increase in M-CSF” value is recorded as not below 10% and the “% increase in SRB” value was not below 10%. Further, in assay [2] (setting [4]), the “% decrease in Collagen I” value is recorded as not below 10%. Further, the inhibition at 10 µM in assay [2] (setting [5]) is not below 10%. Regarding `COC(=O)CCC(=O)SCCNC(=O)CCNC(=O)[C@H](OC(=O)CN)C(C)(C)CO` [Compound 1294, methyl 4-[(2-[3-[(2R)-2-[(2-aminoacetyl)oxy]-4-hydroxy-3,3-dimethylbutanamido]propanamido]ethyl)sulfanyl]-4-oxobutanoate], the inhibition at 1 µM in assay [2] (Homo sapiens, Fibroblast, 24 h, 1 uM, read-out: % decrease in Collagen III) is not below 10%. Moreover, the activation at 10 µM in assay [2] (setting [6]) was not below 20%. As to `CC(=O)SCCNC(=O)CCNC(=O)[C@H](O)C(C)(C)COC(=O)[C@H](C)N` [Compound 502, (3R)-3-[(2-[[2-(acetylsulfanyl)ethyl]carbamoyl]ethyl)carbamoyl]-3-hydroxy-2,2-dimethylpropyl (2S)-2-aminopropanoate], the activation at 10 µM in assay [1] (setting [7]) was not below 10%. Moreover, in assay [2] (1 uM), the “% increase in SRB” value is not below 10%. On to `COC(=O)CC(SCCNC(=O)CCNC(=O)[C@H](O)C(C)(C)COC(C)=O)C(=O)OC` (stereo partly drawn) [Compound 149, 1,4-dimethyl 2-[(2-[3-[(2R)-4-(acetyloxy)-2-hydroxy-3,3-dimethylbutanamido]propanamido]ethyl)sulfanyl]butanedioate], for which the activation at 10 µM in assay [1] (setting [3]) was not below 10%. For the same molecule, in assay [2] (1 uM, procedure of Example 833), the “% increase in Collagen I” value is given as not below 10%.

Take `CC(C)C(=O)CC(=O)SCCNC(=O)CCNC(=O)[C@H](O)C(C)(C)CO` [Compound 1239, (R)—S-(2-(3-(2,4-dihydroxy-3,3-dimethylbutanamido)propanamido)ethyl) 4-methyl-3-oxopentanethioate]: the activation at 10 µM in the assay on HepG2 cells is more than 5%. In the case of `CC(=O)OCC(C)(C)[C@@H](OC(C)=O)C(=O)NCCC(=O)NCCSC(C)=O` [Compound 1264, (1R)-3-(acetyloxy)-1-[(2-[[2-(acetylsulfanyl)ethyl]carbamoyl]ethyl)carbamoyl]-2,2-dimethylpropyl acetate], in assay [2] (1 uM), the “% increase in PAI-I” value is given as not below 10%. Moreover, in assay [2] (10 uM), the “% increase in TIMP-2” value was not below 10%. Besides, in assay [2] (setting [6]), the activation at 10 µM is not below 10%. In the case of `CC(C)(CO)[C@@H](O)C(=O)NCCC(=O)NCCSC(=O)CCCO` [Compound 1304, (2R)-2,4-dihydroxy-N-[2-([2-[(4-hydroxybutanoyl)sulfanyl]ethyl]carbamoyl)ethyl]-3,3-dimethylbutanamide], in assay [1] (setting [7]), the activation at 10 µM is not below 10%. With `COC(=O)C(C)C(=O)SCCNC(=O)CCNC(=O)[C@H](O)C(C)(C)CO` (stereo partly shown) [Compound 405], the activation at 50 µM in the assay on HepG2 cells is more than 5%. Consider `CC(C)(CO)[C@@H](O)C(=O)NCCC(=O)NCCSC(=O)CC(=O)CCC(=O)O` [Compound 2, 6-[(2-[3-[(2R)-2,4-dihydroxy-3,3-dimethylbutanamido]propanamido]ethyl)sulfanyl]-4,6-dioxohexanoic acid], for which the activation at 10 µM in assay [1] (assay condition D (1 mM glucose, 10% FBS), read-out: Increase in Spare Capacity AUC) is not below 50%.
